According to ChEMBL document CHEMBL1201862, “PubChem BioAssay data set” (2004):
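In this assay, cells in 96-well plates receive the compound at five concentrations for 48 hours. Endpoints are linearly interpolated between the surrounding concentrations. Abbreviation: GI50, concentration required for 50% inhibition of growth.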 Activity calls are given as the source filed them. Cut-off read from the data, not from the text of the source: active = GI50 up to about 1.1 µM and inactive = higher.

Columns and labels:
Assay in all cases: NCI tumour cell line growth inhibition, 48 h
786-0 = test system: 786-0
A498 = test system: A498
A549 = test system: A549
ACHN = test system: ACHN
CAKI-1 = test system: CAKI-1
CCRF-CEM = test system: CCRF-CEM
COLO 205 = test system: COLO 205
DLD-1 = test system: DLD-1
DMS-114 = test system: DMS-114
DMS-273 = test system: DMS-273
EKVX = test system: EKVX
HCC 2998 = test system: HCC 2998
HCT-116 = test system: HCT-116
HCT-15 = test system: HCT-15
HL-60 = test system: HL-60
HOP-62 = test system: HOP-62
HOP-92 = test system: HOP-92
HT-29 = test system: HT-29
IGROV-1 = test system: IGROV-1
K562 = test system: K562
KM-20L2 = test system: KM-20L2
KM12 = test system: KM12
LOX IMVI = test system: LOX IMVI
LXFL 529 = test system: LXFL 529
M14 = test system: M14
M19-MEL = test system: M19-MEL
MOLT-4 = test system: MOLT-4
Malme-3M = test system: Malme-3M
NCI-H226 = test system: NCI-H226
NCI-H23 = test system: NCI-H23
NCI-H460 = test system: NCI-H460
NCI-H522 = test system: NCI-H522
OVCAR-3 = test system: OVCAR-3
OVCAR-4 = test system: OVCAR-4
OVCAR-5 = test system: OVCAR-5
RPMI-8226 = test system: RPMI-8226
RXF 393 = test system: RXF 393
RXF 631 = test system: RXF 631
SF-268 = test system: SF-268
SF-295 = test system: SF-295
SF-539 = test system: SF-539
SK-MEL-28 = test system: SK-MEL-28
SK-MEL-2 = test system: SK-MEL-2
SK-MEL-5 = test system: SK-MEL-5
SK-OV-3 = test system: SK-OV-3
SN12C = test system: SN12C
SNB-19 = test system: SNB-19
SNB-75 = test system: SNB-75
SNB-78 = test system: SNB-78
SR = test system: SR
SW-620 = test system: SW-620
TK-10 = test system: TK-10
U-251 = test system: U-251
UO-31 = test system: UO-31
XF498 = test system: XF498

Measured: GI50

COC(=O)C1C=CCON2CCc3c(n(C)c4ccccc34)C12 (stereo not given)
> 100 µM: HCT-15
inactive: 786-0 > 100 µM | A498 46.6 µM | A549 > 100 µM | ACHN > 100 µM | CAKI-1 > 100 µM | CCRF-CEM > 100 µM | COLO 205 > 100 µM | DLD-1 > 100 µM | DMS-114 > 100 µM | DMS-273 > 100 µM | EKVX 92.3 µM | HCC 2998 > 100 µM | HCT-116 > 100 µM | HL-60 > 100 µM | HOP-62 > 100 µM | HOP-92 > 100 µM | HT-29 > 100 µM | IGROV-1 > 100 µM | K562 > 100 µM | KM-20L2 > 100 µM | KM12 > 100 µM | LOX IMVI > 100 µM | LXFL 529 > 100 µM | M14 > 100 µM | M19-MEL > 100 µM | MOLT-4 > 100 µM | Malme-3M > 100 µM | NCI-H226 > 100 µM | NCI-H23 > 100 µM | NCI-H460 > 100 µM | NCI-H522 > 100 µM | OVCAR-3 > 100 µM | OVCAR-4 > 100 µM | OVCAR-5 > 100 µM | RPMI-8226 > 100 µM | RXF 393 > 100 µM | RXF 631 > 100 µM | SF-268 > 100 µM | SF-295 > 100 µM | SF-539 > 100 µM | SK-MEL-28 > 100 µM | SK-MEL-2 > 100 µM | SK-MEL-5 > 100 µM | SK-OV-3 > 100 µM | SN12C > 100 µM | SNB-19 > 100 µM | SNB-75 88.1 µM | SNB-78 > 100 µM | SR > 100 µM | SW-620 > 100 µM | TK-10 > 100 µM | U-251 > 100 µM | UO-31 > 100 µM | XF498 42.1 µM
